The target of test [1] is T1, HiBit-KRAS^G12C (Homo sapiens, UniProt P01116, G12C). In words: HiBit degradation assay in MiaPaCa-2 HiBit-KRas^G12C cells. The format is cell-based. The conditions noted are these: 0.5% DMSO, 24 hours; for KRas^G12C-HiBiT (MiaPaCa; 0.5% DMSO) DMax / DC50: MiaPaCa-2 HiBit-KRas^G12C cells; for KRas^G12C-HiBiT (MiaPaCa; 0.5% DMSO) DMax / Dmax: maximum degradation; for DC50: read-out: KRas^G12C-HiBiT (MiaPaCa; 0.5% DMSO) IC50; for Dmax: MIA PaCa-2, MiaPaCa-2 HiBit-KRas^G12C cells, read-out: KRas^G12C-HiBiT (MiaPaCa; 0.5% DMSO) DMax. On the procedure: Reagents. SW1573 (CRL-2170) and MiaPaCa-2 (CRL-1420) cells were purchased from ATCC. Both cell lines are […] for the G12C mutation in KRAS. SW1573 cells were cultured in DMEM+F12+Glutamax (+Sodium Bicarbonate, +sodium pyruvate, Thermofisher scientific, #10565) supplemented with 10% FBS (Thermofisher scientific, #2060357) and 1% Antibiotic-Antimycotic (Thermofisher scientific, #15240096). MiaPaCa-2 cells were cultured in DMEM+Glutamax media (Thermofisher scientific, #10566) supplemented with 10% FBS (Thermofisher scientific, #2060357) and 1% Antibiotic-Antimycotic (Thermofisher scientific, #15240096). For degradation assays, 384 well plates were purchased from Corning (Corning® CellBIND® 384-well Flat Clear Bottom Black Polystyrene Microplates, Low Flange, #3770). Gambogic acid was purchased from Selleckchem (#S2448). Alamar blue was purchased from Thermofisher scientific (A50101) and used according to manufacturer instructions. The Nano-Glo® HiBit Lytic Detection System and Nano-Glo® HiBit Blotting System were purchased from Promega (#N3050 and #N2410) and used according to manufacturer instructions.
T1 sequence (P01116 1-186 isoform P01116-2 G12C limits assumed): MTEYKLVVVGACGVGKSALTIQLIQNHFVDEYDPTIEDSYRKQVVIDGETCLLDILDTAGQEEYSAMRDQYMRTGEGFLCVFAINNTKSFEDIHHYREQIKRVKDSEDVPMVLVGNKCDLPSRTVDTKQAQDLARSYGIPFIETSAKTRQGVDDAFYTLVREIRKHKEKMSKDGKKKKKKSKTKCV
To create the MiaPaCa-2 HiBit-KRAS^G12C cell line, CRISPR-Cas9 was used to insert the HiBit tag onto the N-terminus of one or more of the four endogenous KRAS^G12C alleles. After knock-in of the tag, individual clones were isolated by single cell dilution and screened for HiBit insertion by PCR. Clones containing the HiBit tag were sequenced and one was identified that contained the desired HiBit-KRAS^G12C sequence at one allele while the remaining three KRAS^G12C alleles were unaffected. This line was used for all subsequent studies.
Either SW1573 HiBit-KRas^G12C or MiaPaCa-2 HiBit-KRas^G12C cells were plated at 9000 cells/well in a 384 well plate (Corning #3770). Exemplary heterobifunctional molecules and positive controls were diluted in the appropriate cell media and applied to the plated cells resulting in a final concentration titration of 10 μM to 20 nM in either 0.1% or 0.5% dimethyl sulfoxide (DMSO). Gambogic acid was used as a positive control for cytotoxicity and titrated from 10 μM to 78 nM. All assays were performed in triplicate. Cells were treated with compounds for 24 hours at 37° C. in an incubator containing 5% CO2. Following treatment, alamar blue was used to determine if any compounds led to a loss in cell viability after 24 hours. The 10× alamar blue reagent was added to a final concentration of 1× as recommended by the manufacturer and cells were returned to the incubator for 4 hours. Plates were then allowed to equilibrate to room temperature and fluorescence was measured using a Perkin-Elmer EnVision. After completion of the fluorescence read, the liquid from each well was removed and the cells were washed with PBS. The Nano-Glo® HiBiT detection reagent was prepared according to the manufacturer's instructions and added to each well after the PBS wash was removed. Following incubation at room temperature for 45 minutes, the luminescence was read using the ultra-sensitive luminescence aperture on the Envision instrument.
Fluorescence values from the alamar blue treatment were normalized to the DMSO only control for each compound titration. We hypothesized that compounds that led to a ≥50% loss in cell viability of the KRAS-independent SW1573 HiBit-KRas^G12C cells were likely generally cytotoxic and loss of HiBit-KRAS^G12C signal from these compounds may be due to lower cell number and not specific KRAS^G12C degradation. These points were therefore excluded from the data analysis for degradation. […]
(HiBiT is a short tag that completes a luciferase, so light tracks the accessible tagged protein.)

Test [2] concerns the target T1, HiBit-KRAS^G12C. In words: HiBit degradation assay in SW1573 HiBit-KRas^G12C cells. Set-up: expressed in transfected cells; host or cells: SW1573 (clone E6), modified pcDNA3.1 vector, TK promoter. The conditions noted are these: 0.5% DMSO, 24 hours; for DC50: read-out: KRas^G12C-HiBiT (SW1573; 0.5% DMSO) IC50***; for KRas^G12C-HiBiT (SW1573; 0.5% DMSO) Dmax** / DC50: SW1573 HiBit-KRas^G12C. The format is cell-based. The method, boiled down:
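HiBit-KRAS G12C degradation was measured after a 24 h compound exposure (titrated 10 μM–20 nM) in engineered SW1573 cells. Lytic HiBit luminescence, expressed relative to DMSO controls, yielded DC50 and Dmax from 4-parameter fits. Concentrations causing ≥50% loss in alamar blue viability were omitted as cytotoxic.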

The values below come from US20220370416A1, “COMPOUNDS AND METHODS FOR TARGETED DEGRADATION OF KRAS” (Arvinas Operations, Inc., priority 2020, published 2022).

Consider `C=CC(=O)N1CCN(c2nc(OCCN3CCC(COc4cc([C@H](C(=O)N5C[C@H](O)C[C@H]5C(=O)N[C@@H](C)c5ccc(-c6scnc6C)cc5)C(C)C)on4)CC3)nc3c(F)c(-c4cc(O)cc5ccccc45)c(Cl)cc23)C[C@@H]1CC#N` (atropisomer, axis not shown) [Compound 104, (2S,4R)-1-[(2R)-2-[3-({1-[2-({6-chloro-4-[(3S)-3-(cyanomethyl)-4-(prop-2-enoyl)piperazin-1-yl]-8-fluoro-7-(3-hydroxynaphthalen-1-yl)quinazolin-2-yl}oxy)ethyl]piperidin-4-yl}methoxy)-1,2-oxazol-5-yl]-3-methylbutanoyl]-4-hydroxy-N-[(1S)-1-[4-(4-methyl-1,3-thiazol-5-yl)phenyl]ethyl]pyrrolidine-2-carboxamide], for which, in test [1], the “KRas^G12C-HiBiT (MiaPaCa; 0.5% DMSO) DMax” value is on record as “C (C ≤ 35)” and the DC50 is 100 to 1000 nM. In test [2], the “KRas^G12C-HiBiT (SW1573; 0.5% DMSO) Dmax**” value is reported as “C (C ≤ 35)” and the DC50 lay within 100 to 1000 nM.
Consider `C=CC(=O)N1CCN(c2nc(OCCN3CCC(COc4cc([C@@H](C(=O)N5C[C@@H](O)C[C@H]5C(=O)N[C@@H](C)c5ccc(-c6scnc6C)cc5)C(C)C)on4)CC3)nc3c(F)c(-c4cc(O)cc5ccccc45)c(Cl)cc23)C[C@@H]1CC#N` (atropisomer, axis not shown) [Compound 105, (2S,4S)-1-[(2S)-2-[3-({1-[2-({6-chloro-4-[(3S)-3-(cyanomethyl)-4-(prop-2-enoyl)piperazin-1-yl]-8-fluoro-7-(3-hydroxynaphthalen-1-yl)quinazolin-2-yl}oxy)ethyl]piperidin-4-yl}methoxy)-1,2-oxazol-5-yl]-3-methylbutanoyl]-4-hydroxy-N-[(1S)-1-[4-(4-methyl-1,3-thiazol-5-yl)phenyl]ethyl]pyrrolidine-2-carboxamide], for which, in test [1], the Dmax was under 35%. Also, the values for the DC50 in test [1] and in test [2] were under 100 nM and over 1000 nM, respectively.
In the same order, the values of `C=CC(=O)N1CCN(c2nc(OCCN3CCC(COc4cc([C@H](C(=O)N5C[C@@H](O)C[C@H]5C(=O)N[C@@H](C)c5ccc(-c6scnc6C)cc5)C(C)C)on4)CC3)nc3c(F)c(-c4cc(O)cc5ccccc45)c(Cl)cc23)C[C@@H]1CC#N` (atropisomer, axis not shown) [Compound 106, (2S,4S)-1-[(2R)-2-[3-({1-[2-({6-chloro-4-[(3S)-3-(cyanomethyl)-4-(prop-2-enoyl)piperazin-1-yl]-8-fluoro-7-(3-hydroxynaphthalen-1-yl)quinazolin-2-yl}oxy)ethyl]piperidin-4-yl}methoxy)-1,2-oxazol-5-yl]-3-methylbutanoyl]-4-hydroxy-N-[(1S)-1-[4-(4-methyl-1,3-thiazol-5-yl)phenyl]ethyl]pyrrolidine-2-carboxamide] are under 35%, under 100 nM and over 1000 nM.
Take `C=CC(=O)N1CCN(c2nc(OCCN3CCC4(CC3)CN(c3cc([C@H](C(=O)N5C[C@H](O)C[C@H]5C(=O)N[C@@H](C)c5ccc(-c6scnc6C)cc5)C(C)C)on3)C4)nc3c(F)c(-c4cc(O)cc5ccccc45)c(Cl)cc23)C[C@@H]1CC#N` (atropisomer, axis not shown) [Compound 107, (2S,4R)-1-[(2R)-2-(3-{7-[2-({6-chloro-4-[(3S)-3-(cyanomethyl)-4-(prop-2-enoyl)piperazin-1-yl]-8-fluoro-7-(3-hydroxynaphthalen-1-yl)quinazolin-2-yl}oxy)ethyl]-2,7-diazaspiro[3.5]nonan-2-yl}-1,2-oxazol-5-yl)-3-methylbutanoyl]-4-hydroxy-N-[(1S)-1-[4-(4-methyl-1,3-thiazol-5-yl)phenyl]ethyl]pyrrolidine-2-carboxamide]: in test [1], the “KRas^G12C-HiBiT (MiaPaCa; 0.5% DMSO) DMax” value was “B (35 < B < 70)” and the DC50 is under 100 nM. Besides, in test [2], the “KRas^G12C-HiBiT (SW1573; 0.5% DMSO) Dmax**” value is “B (35 < B < 70)” and the DC50 was under 100 nM.
As to `C=CC(=O)N1CCN(c2nc(OCCN3CCC4(CC3)CN(c3cc([C@@H](C(=O)N5C[C@H](O)C[C@H]5C(=O)N[C@@H](C)c5ccc(-c6scnc6C)cc5)C(C)C)on3)C4)nc3c(F)c(-c4cc(O)cc5ccccc45)c(Cl)cc23)C[C@@H]1CC#N` (atropisomer, axis not shown) [Compound 108, (2S,4R)-1-[(2S)-2-(3-{7-[2-({6-chloro-4-[(3S)-3-(cyanomethyl)-4-(prop-2-enoyl)piperazin-1-yl]-8-fluoro-7-(3-hydroxynaphthalen-1-yl)quinazolin-2-yl}oxy)ethyl]-2,7-diazaspiro[3.5]nonan-2-yl}-1,2-oxazol-5-yl)-3-methylbutanoyl]-4-hydroxy-N-[(1S)-1-[4-(4-methyl-1,3-thiazol-5-yl)phenyl]ethyl]pyrrolidine-2-carboxamide], in test [1], the Dmax is under 35% and the DC50 lay in the range of 100 to 1000 nM. Besides, the DC50 in test [2] was over 1000 nM.
As to `C=C(F)C(=O)N1CCN(c2nc(OCCN3CCC4(CC3)CN(c3cc([C@H](C(=O)N5C[C@H](O)C[C@H]5C(=O)N[C@@H](C)c5ccc(-c6scnc6C)cc5)C(C)C)on3)C4)nc3c(F)c(-c4cc(O)cc5ccccc45)c(Cl)cc23)C[C@@H]1CC#N` (atropisomer, axis not shown) [Compound 109, (2S,4R)-1-[(2R)-2-(3-{7-[2-({6-chloro-4-[(3S)-3-(cyanomethyl)-4-(2-fluoroprop-2-enoyl)piperazin-1-yl]-8-fluoro-7-(3-hydroxynaphthalen-1-yl)quinazolin-2-yl}oxy)ethyl]-2,7-diazaspiro[3.5]nonan-2-yl}-1,2-oxazol-5-yl)-3-methylbutanoyl]-4-hydroxy-N-[(1S)-1-[4-(4-methyl-1,3-thiazol-5-yl)phenyl]ethyl]pyrrolidine-2-carboxamide], the Dmax is over 70% in test [1] and 35 to 70% in test [2] (SW1573, SW1573 HiBit-KRas^G12C, read-out: KRas^G12C-HiBiT (SW1573; 0.5% DMSO) Dmax**). Further, the DC50 in test [1] and in test [2] was under 100 nM in each case.
For the compound `C=CC(=O)N1CCN(c2nc(OCCN3CCC(COCC(=O)N[C@H](C(=O)N4C[C@H](O)C[C@H]4C(=O)N[C@@H](C)c4ccc(-c5scnc5C)cc4)C(C)(C)C)CC3)nc3c(F)c(-c4cc(O)cc5ccccc45)c(Cl)cc23)C[C@@H]1CC#N` (atropisomer, axis not shown) [Compound 110, (2S,4R)-1-[(2S)-2-[2-({1-[2-({6-chloro-4-[(3S)-3-(cyanomethyl)-4-(prop-2-enoyl)piperazin-1-yl]-8-fluoro-7-(3-hydroxynaphthalen-1-yl)quinazolin-2-yl}oxy)ethyl]piperidin-4-yl}methoxy)acetamido]-3,3-dimethylbutanoyl]-4-hydroxy-N-[(1S)-1-[4-(4-methyl-1,3-thiazol-5-yl)phenyl]ethyl]pyrrolidine-2-carboxamide], the “KRas^G12C-HiBiT (MiaPaCa; 0.5% DMSO) DMax” value in test [1] is recorded as “C (C ≤ 35)”. In addition, in test [2], the “KRas^G12C-HiBiT (SW1573; 0.5% DMSO) Dmax**” value was “C (C ≤ 35)”.
